≈ marks a conversion by molar mass, not a printed value. Read-outs that look alike come from different tables or passages of the source.
What was measured:
[1] = Solubility experiments (approximate solubility by solvent aliquot addition); assay type: physicochemical; conditions: thermodynamic from solid
Description: Approximately 20 mg of Form A of Compound (1) was placed in each of 48 vials and 5 volume aliquots of the appropriate solvent systems were added to the appropriate vial. Between each addition, the mixture was checked for dissolution and if no dissolution was apparent, the mixture was warmed to ca. 50° C. and checked again. This procedure was continued until dissolution was observed or until 100 volumes of solvent had been added.

[2] = Dynamic Vapour Sorption (DVS) with XRPD re-analysis; assay type: physicochemical
Description: Dynamic Vapour Sorption (DVS) was performed on a DVS-1 dynamic vapour sorption balance by Surface Measurement Systems. Approximately 10-20 mg of sample was loaded into a wire mesh vapour sorption balance pan of the balance. The sample was subjected to a ramping profile from 20-90% relative humidity (RH) in 10% increments, maintaining the sample at each step until a stable weight had been achieved (99.5% step completion) or 1000 minutes had elapsed. After completion of the sorption cycle, the sample was dried using the same procedure, but all the way down to 0% RH and finally taken back to the starting point of 20% RH. The weight change during the sorption/desorption cycles were plotted, allowing for the hygroscopic nature of the sample to be determined. Following the DVS analysis, the solid was re-analysed by XRPD in order to determine whether there had been any change in physical form.

For `O=C(O)CNC(=O)c1ncc(-c2cccc(Cl)c2)cc1O` [Form A of Compound (I), {[5-(3-chlorophenyl)-3-hydroxypyridine-2-carbonyl]amino}acetic acid], the solubility ([1]; organic solvent or mixture, Solvent: Diisopropyl ether (DIPE), ca. 50° C., read-out: Solubility (mg/mL) (ca. 50° C.)) was < 10 mg/mL, the solubility ([1]; organic solvent or mixture, Solvent: Dimethyl sulfoxide (DMSO), RT (ca. 22° C.), read-out: Solubility (mg/mL) RT (ca. 22° C.)) was > 200 mg/mL and the solubility ([1]; organic solvent or mixture, Solvent: Dimethyl sulfoxide (DMSO), ca. 50° C., read-out: Solubility (mg/mL) (ca. 50° C.)) was > 200 mg/mL. The solubility ([1]; organic solvent or mixture, Solvent: Dimethylacetamide (DMA), RT (ca. 22° C.), read-out: Solubility (mg/mL) RT (ca. 22° C.)) was > 200 mg/mL, the solubility ([1]; organic solvent or mixture, Solvent: Dimethylacetamide (DMA), ca. 50° C., read-out: Solubility (mg/mL) (ca. 50° C.)) was > 200 mg/mL and the solubility ([1]; organic solvent or mixture, Solvent: Dimethylformamide (DMF), RT (ca. 22° C.), read-out: Solubility (mg/mL) RT (ca. 22° C.)) was > 200 mg/mL. The solubility ([1]; organic solvent or mixture, Solvent: Dimethylformamide (DMF), ca. 50° C., read-out: Solubility (mg/mL) (ca. 50° C.)) was > 200 mg/mL, the solubility ([1]; organic solvent or mixture, Solvent: EtOAc/Cyclohexane (1:2), ca. 50° C., read-out: Solubility (mg/mL) (ca. 50° C.)) was < 10 mg/mL and the solubility ([1]; organic solvent or mixture, Solvent: EtOAc/Toluene (1:2), RT (ca. 22° C.), read-out: Solubility (mg/mL) RT (ca. 22° C.)) was < 14 mg/mL. For the same molecule, the solubility ([1]; organic solvent or mixture, Solvent: EtOAc/Toluene (1:2), ca. 50° C., read-out: Solubility (mg/mL) (ca. 50° C.)) was 14 mg/mL (≈ 45.6 mM), the solubility ([1]; organic solvent or mixture, Solvent: Ethanol (EtOH), RT (ca. 22° C.), read-out: Solubility (mg/mL) RT (ca. 22° C.)) was 34 mg/mL (≈ 111 mM) and the solubility ([1]; organic solvent or mixture, Solvent: Ethanol (EtOH), ca. 50° C., read-out: Solubility (mg/mL) (ca. 50° C.)) was > 34 mg/mL. The solubility ([1]; organic solvent or mixture, Solvent: Ethyl acetate (EtOAc), RT (ca. 22° C.), read-out: Solubility (mg/mL) RT (ca. 22° C.)) was < 41 mg/mL, the solubility ([1]; organic solvent or mixture, Solvent: Ethyl acetate (EtOAc), ca. 50° C., read-out: Solubility (mg/mL) (ca. 50° C.)) was 41 mg/mL (≈ 134 mM) and the solubility ([1]; organic solvent or mixture, Solvent: Ethylene glycol, RT (ca. 22° C.), read-out: Solubility (mg/mL) RT (ca. 22° C.)) was < 10 mg/mL. The solubility ([1]; organic solvent or mixture, Solvent: Ethylene glycol, ca. 50° C., read-out: Solubility (mg/mL) (ca. 50° C.)) was < 10 mg/mL, the solubility ([1]; organic solvent or mixture, Solvent: Heptane, RT (ca. 22° C.), read-out: Solubility (mg/mL) RT (ca. 22° C.)) was < 10 mg/mL and the solubility ([1]; organic solvent or mixture, Solvent: Heptane, ca. 50° C., read-out: Solubility (mg/mL) (ca. 50° C.)) was < 10 mg/mL. The solubility ([1]; organic solvent or mixture, Solvent: Isobutyl acetate (iBuOAc), RT (ca. 22° C.), read-out: Solubility (mg/mL) RT (ca. 22° C.)) was < 20 mg/mL, the solubility ([1]; organic solvent or mixture, Solvent: Isobutyl acetate (iBuOAc), ca. 50° C., read-out: Solubility (mg/mL) (ca. 50° C.)) was 20 mg/mL (≈ 65.2 mM) and the solubility ([1]; organic solvent or mixture, Solvent: Isopropyl acetate (iPrOAc), RT (ca. 22° C.), read-out: Solubility (mg/mL) RT (ca. 22° C.)) was < 26 mg/mL. The solubility ([1]; organic solvent or mixture, Solvent: Isopropyl acetate (iPrOAc), ca. 50° C., read-out: Solubility (mg/mL) (ca. 50° C.)) was 26 mg/mL (≈ 84.8 mM), the solubility ([1]; organic solvent or mixture, Solvent: MeOH/Water (1%), RT (ca. 22° C.), read-out: Solubility (mg/mL) RT (ca. 22° C.)) was < 40 mg/mL and the solubility ([1]; organic solvent or mixture, Solvent: MeOH/Water (1%), ca. 50° C., read-out: Solubility (mg/mL) (ca. 50° C.)) was 40 mg/mL (≈ 130 mM). For the same molecule, the solubility ([1]; organic solvent or mixture, Solvent: MeOH/Water (20%), RT (ca. 22° C.), read-out: Solubility (mg/mL) RT (ca. 22° C.)) was < 10 mg/mL, the solubility ([1]; organic solvent or mixture, Solvent: Methanol (MeOH), RT (ca. 22° C.), read-out: Solubility (mg/mL) RT (ca. 22° C.)) was < 51 mg/mL and the solubility ([1]; organic solvent or mixture, Solvent: Methanol (MeOH), ca. 50° C., read-out: Solubility (mg/mL) (ca. 50° C.)) was 51 mg/mL (≈ 166 mM). The solubility ([1]; organic solvent or mixture, Solvent: Methyl acetate (MeOAc), RT (ca. 22° C.), read-out: Solubility (mg/mL) RT (ca. 22° C.)) was < 68 mg/mL, the solubility ([1]; organic solvent or mixture, Solvent: Methyl acetate (MeOAc), ca. 50° C., read-out: Solubility (mg/mL) (ca. 50° C.)) was 68 mg/mL (≈ 222 mM) and the solubility ([1]; organic solvent or mixture, Solvent: Methyl ethyl ketone (MEK), RT (ca. 22° C.), read-out: Solubility (mg/mL) RT (ca. 22° C.)) was < 100 mg/mL. The solubility ([1]; organic solvent or mixture, Solvent: Methyl ethyl ketone (MEK), ca. 50° C., read-out: Solubility (mg/mL) (ca. 50° C.)) was 100 mg/mL (≈ 326 mM), the solubility ([1]; organic solvent or mixture, Solvent: Methyl isobutyl ketone (MIBK), RT (ca. 22° C.), read-out: Solubility (mg/mL) RT (ca. 22° C.)) was < 34 mg/mL and the solubility ([1]; organic solvent or mixture, Solvent: Methyl isobutyl ketone (MIBK), ca. 50° C., read-out: Solubility (mg/mL) (ca. 50° C.)) was 34 mg/mL (≈ 111 mM). The solubility ([1]; organic solvent or mixture, Solvent: N-methyl-2-pyrrolidone (NMP), RT (ca. 22° C.), read-out: Solubility (mg/mL) RT (ca. 22° C.)) was > 200 mg/mL, the solubility ([1]; organic solvent or mixture, Solvent: N-methyl-2-pyrrolidone (NMP), ca. 50° C., read-out: Solubility (mg/mL) (ca. 50° C.)) was > 200 mg/mL and the solubility ([1]; organic solvent or mixture, Solvent: Nitromethane, RT (ca. 22° C.), read-out: Solubility (mg/mL) RT (ca. 22° C.)) was < 10 mg/mL. The solubility ([1]; organic solvent or mixture, Solvent: Nitromethane, ca. 50° C., read-out: Solubility (mg/mL) (ca. 50° C.)) was < 10 mg/mL, the solubility ([1]; organic solvent or mixture, Solvent: Tetrahydrofuran (THF), RT (ca. 22° C.), read-out: Solubility (mg/mL) RT (ca. 22° C.)) was > 200 mg/mL and the solubility ([1]; organic solvent or mixture, Solvent: Tetrahydrofuran (THF), ca. 50° C., read-out: Solubility (mg/mL) (ca. 50° C.)) was > 200 mg/mL. The solubility ([1]; organic solvent or mixture, Solvent: Toluene, RT (ca. 22° C.), read-out: Solubility (mg/mL) RT (ca. 22° C.)) was < 10 mg/mL, the solubility ([1]; organic solvent or mixture, Solvent: Toluene, ca. 50° C., read-out: Solubility (mg/mL) (ca. 50° C.)) was < 10 mg/mL and the solubility ([1]; organic solvent or mixture, Solvent: Trifluoroethanol (TFE), RT (ca. 22° C.), read-out: Solubility (mg/mL) RT (ca. 22° C.)) was < 10 mg/mL. For the same molecule, the solubility ([1]; organic solvent or mixture, Solvent: Trifluoroethanol (TFE), ca. 50° C., read-out: Solubility (mg/mL) (ca. 50° C.)) was < 10 mg/mL, the solubility ([1]; organic solvent or mixture, Solvent: methyl tert-butyl ether (MTBE), RT (ca. 22° C.), read-out: Solubility (mg/mL) RT (ca. 22° C.)) was 14 mg/mL (≈ 45.6 mM) and the solubility ([1]; organic solvent or mixture, Solvent: methyl tert-butyl ether (MTBE), ca. 50° C., read-out: Solubility (mg/mL) (ca. 50° C.)) was > 14 mg/mL. The solubility ([1]; Solvent: Water, RT (ca. 22° C.), read-out: Solubility (mg/mL) RT (ca. 22° C.)) was < 10 mg/mL, the solubility ([1]; Solvent: Water, ca. 50° C., read-out: Solubility (mg/mL) (ca. 50° C.)) was < 10 mg/mL and the “water sorption at 90% RH” value ([2]; DVS, 90% RH) was 0.13%. The “XRPD analysis following DVS (change in physical form)” value ([2]; after DVS sorption/desorption cycle) was “no change in form” and the “hygroscopicity (DVS)” value ([2]; judged from water sorption at 90% RH) was “non-hygroscopic”.

From patent US12419877B2, “Solid forms of {[5-(3-chlorophenyl)-3-hydroxypyridine-2-carbonyl]amino}acetic acid, compositions, and uses thereof” (Akebia Therapeutics, Inc., priority 2013, dated 2025)
